Test results taken from patent US5696239A (The Dow Chemical Company, priority 1995, dated 1997).

Assays:
[1] = Complex study: percent yttrium complex after addition of excess metal (lability); type: physicochemical
Protocol: (§1) A disposable 10 ml plastic (Biorad) column was filled with 1 to 2 ml of water-swelled Sephadex™ C-25 cation exchange resin. The water was pressure eluted to the top of the resin. Fifteen μl of the complex (or more if counts were low) were added to the top of the resin. This was followed by 2 ml of 4:1 (V:V) isotonic saline:conc. ammonium hydroxide solution as an eluent which was allowed to drip into a counting tube. This was also pressure eluted to the top of the resin. An additional 2 ml of the eluent were added and the column pressure eluted to remove all liquid. The dried resin was then placed in a third counting tube and the three tubes counted on a NaI well counter using a Canberra multichannel analyzer linked to a computer. The percent complex was determined by dividing the number of counts in the two elutions by the total counts in the elutions plus the column, all times 100. By this method, uncomplexed yttrium was retained on the column.
The 1:1 complex of yttrium with 1-(p-aminobenzyl)diethylenetriaminepentaacetic acid (ABDTPA), a well known bifunctional chelant used in the literature, and with the ligand of Example 2 (Now Ex. XVI) and Example 12 (now Ex. XVII) were prepared using the techniques described earlier. Several 100 microliter aliquots were then withdrawn into separate centrifuge tubes. Excess metal was added such that the total volume change is minimized and the time noted. One-half hour after metal addition, the percent complex was determined by the Sephadex™ C-25 method and this was compared to the original amount of complex. The percent complex versus added metal gives an indication as to the lability of the ligand-metal complex. Results are given below and are compared to the EDTA-yttrium complex.

[2] = Challenge of antibody-complex conjugates with excess DTPA (inertness); type: physicochemical; settings: 1000 fold molar excess DTPA, pH 7.4, one hour; CC-46 conjugate of Y-90 complex
Protocol: The purified antibody-complexes were added to HEPES buffer (N-2-hydroxyethylpiperazine-N'-2-ethanesulfonic acid) at pH 7.4 and treated with an appropriate amount of 0.1M DTPA solution (pH 7.4) to ensure a 1000 fold molar excess of DTPA over complex attached to antibody. After one hour an aliquot was removed and the antibody-complex conjugates were separated from low molecular weight substances using gel-filtration.

[3] = Percent complex determination, yttrium complexes (Sephadex C-25 cation exchange); type: physicochemical; settings: for % Complex (10:1), Y: ligand/metal 10:1, pH 7.4
Protocol: Complexes were made by preparing a 0.0003M yttrium solution in water. (YCl3.6H2 O, 303.26 g/mole; Y(OAc)3, 12.1% H2 O). Radioactive YCl3 (Oakridge National Laboratories) was added to give the desired number of counts. Ten μl of ligand solution (at 0.03M) were added to 990 μl of the Y solution, giving a ligand-to-metal ratio of 1:1. (Ten times the amount of ligand solution was used for a 10:1 ligand to metal ratio.) The pH was then adjusted to 7.4 using microliter quantities of hydrochloric acid or sodium hydroxide. The solution was then tested for the amount of complexed yttrium using the cation exchange method given below.
as §1

[4] = Biodistribution in a rabbit; type: in vivo; settings: Y-90, ligand 10 times molar excess
Protocol: Muscle was calculated using 46% of body weight.
A rabbit was injected in the same manner as the rats with a formulation having Y-90 with Y at 3×10^-4 M and the ligand of Example 10 at 10 times molar excess.

[5] = system: osteosarcoma in the right proximal humerus; test: Treatment of a dog with osteosarcoma; type: in vivo; settings: Sm-153 complex, ligand 300 times molar excess; I.V. 0.95 mCi Sm-153 per Kg; one week after injection
Protocol: A dog was presented with an osteosarcoma in the right proximal humerus and walked with significant lameness. A complex was prepared using the ligand of Example 10 with a Sm-153 solution. The concentration of Sm was 3×10^-4 M and the ligand was used with a 300 times molar excess. The specific activity of the Sm-153 was 30 mCi/ml. The dog was given an I.V. injection of this complex containing 0.95 mCi of Sm-153 per Kg body weight of the dog.

[6] = In vivo biodistribution of chelates in rats (% dose in organs); settings: rat; for % Injected Dose in Liver: 2 hours after i.v. injection; for % dose in the spleen / % dose in the bone / % dose in the blood / % dose in the muscle: 2 hours; for % dose in the bone: 25 times % dose in a femur; for % dose in the blood: blood 6.5% of animal weight; for % dose in the muscle: muscle 46% of body weight
Protocol: Also samarium was injected as samarium chloride in unchelated form.
These animals were placed in cages and fed water and food ad libitum. The animals were acclimated for at least five days before use. Prior to injection of complex, the animals were placed under a heat lamp (15 to 30 minutes) to dilate the tail vein. Then, the animal was placed in a restraining cage, the tail cleaned with an alcohol swipe, and the animal injected (50 to 200 μl) via the tail vein. After injection, the animal was placed in another cage for two hours after which time the animal was sacrificed by cervical dislocation. The animal was then dissected, the parts rinsed with deionized H2 O , patted dry, and weighed into a tared counting vial. Whatever size of injection was made, at least three standards of the same material were prepared and counted with the animal parts.
Complexes were prepared by mixing a solution of ligand and metal then adjusting the pH to 7-8. The amount of metal that was complexed to ligand was determined by cation exchange chromatography. Free metal was retained by the resin, metal in the form of a complex was not.
One-hundred μl of the complexes were injected into the tail vein of three Sprague Dawley rats. Two hours after injection, the rats were killed by cervical dislocation and samples of tissues were taken. The tissues were weighed and the amount of radiation in each tissue determined by measuring the number of counts using a NaI well counter and comparing them to standards. […] The amount in bone was 25 times the % dose in a femur. The examples below differ in the ligand, amount of ligand and amount of metal used. Non-radioactive metal was used to obtain the desired ligand to metal ratios and tracer radioactive metal was used to obtain the biodistribution.

[7] = Percent complex determination, samarium complexes (Sephadex C-25 cation exchange); type: physicochemical; settings: samarium
Protocol: as §1, with “100.” for “100. By this method, uncomplexed yttrium was retained on the column.”
Percent complex determination was made in the same manner as for the yttrium complex.

[8] = metal/ligand molar ratio 250, one-half hour after metal addition
[9] = metal/ligand molar ratio 500, one-half hour after metal addition
[10] = Ho-166, ligand 300 times molar excess
[11] = Sm-153, ligand 10 times molar excess
[12] = Sm-153, ligand 300 times molar excess
[13] = ligand/metal ratio about 1:1 (* footnote)

Nc1ccc(CC(CN(CCN(CC(=O)O)CC(=O)O)CC(=O)O)N(CC(=O)O)CC(=O)O)cc1 (stereo not shown) [ABDTPA, 1-(p-aminobenzyl)diethylenetriaminepentaacetic acid]
% Complex ([1]; metal/ligand molar ratio 10, one-half hour after metal addition): 95% | % Complex [1, 8]: 87% | % Complex [1, 9]: 70% | yttrium lost from antibody-complex conjugate [2]: over 98%

CC(=O)Nc1cc(C(C(=O)O)N(CC(=O)O)CC(=O)O)c(O)c(C(C(=O)O)N(CC(=O)O)CC(=O)O)c1 (stereo not shown) [Example 10, 2,6-BIS{[BIS(CARBOXYMETHYL)-AMINO](CARBOXY)METHYL}-4-(ACETAMIDO)PHENOL]
% Complex (10:1), Y [3]: 98% | activity in blood [4]: 0.68% | activity in bone [4]: 59% | activity in liver [4]: 1.1% | activity in muscle [4]: 1.5% | activity in spleen [4]: 0.19% | dog's gait [5]: noticeably improved | % Injected Dose in Liver ([6]; Ho complex, ligand 300 times molar excess): 0.26% | % dose in the spleen [6, 10]: 0.007% | % dose in the bone [6, 10]: 52.9% | % dose in the blood [6, 10]: 0.09% | % dose in the muscle [6, 10]: 1.1% | % Injected Dose in Liver ([6]; Sm complex, ligand 300 times molar excess): 0.12% | % Injected Dose in Liver ([6]; Sm complex, ligand/metal 10:1): 1.3% | % dose in the spleen [6, 11]: 0.01% | % dose in the bone [6, 11]: 48.5% | % dose in the blood [6, 11]: 0.18% | % dose in the muscle [6, 11]: 0.73% | % dose in the spleen [6, 12]: 0.005% | % dose in the bone [6, 12]: 52.7% | % dose in the blood [6, 12]: 0.05% | % dose in the muscle [6, 12]: 0.23% | % Injected Dose in Liver ([6]; Y complex, ligand/metal 10:1): 0.39%

Nc1cc(CN(CCN(CC(=O)O)CC(=O)O)CC(=O)O)c(O)c(CN(CCN(CC(=O)O)CC(=O)O)CC(=O)O)c1 [Example 12]
% Complex (10:1), Y [3]: 99% | % Complex, Y [3, 13]: 98% | % Complex [1, 8]: 90% | % Complex [1, 9]: 79% | yttrium lost from antibody-complex conjugate [2]: approximately 39% | % Complex (10:1), Sm ([7]; ligand/metal 10:1): 98% | % Complex, Sm [7, 13]: 98%
